Results: patent publication US20140336220A1, “COMPOSITION FOR PREVENTING OR TREATING OBESITY COMPRISING REBAMIPIDE” (The Catholic University of Korea Industry-Academic …, priority 2011, published 2014)
“Also recorded” adds a separate entry of the source.

What was measured:
[1] = test system: animal group with obesity induced arthritis; experiment: Type-II-collagen-specific IgG and IgG2a in serum by ELISA; assay type: in vivo, mouse; settings: serum 1:100, vs obesity induced arthritis group, FIG. 13
Description: Blood was collected from the heart of a mouse in each group and centrifuged at 8000 rpm for 8 minutes at 20° C., so that the mouse serum of each group was obtained from a supernatant of the blood. The serum was diluted at a ratio of 1:100, and type-II-collagen-specific IgG and IgG2a were measured by an ELISA method.

[2] = test system: animal model with obesity induced arthritis; experiment: Immunohistochemistry staining of inflammatory cytokines in joint; assay type: in vivo, mouse; settings: immunochemical staining, vs obesity induced arthritis group, FIG. 14
Description: In order to check whether or not rebamipide of the present disclosure specifically can inhibit inflammatory cytokines such as IL-17, IL-6, IL-1b, TNF-a, and Nitrothyrosine in the joint of an animal model with obesity induced arthritis, the joint of a mouse was treated by the same method as illustrated in Example <9-2>. Then, inflammatory cytokines were stained by with an immunochemical staining method and analyzed with an optical microscope.

[3] = test system: spleen cells; experiment: Spleen cell proliferation after aCD3 stimulation, thymidine; assay type: cell-based, mouse; settings: FIG. 7B
Description: The spleen was extracted from the mouse of each group and spleen cells 2×10^5 of each mouse were divided into a 96-well plate and stimulated with 0.5 μg/ml of aCD3 and then cultured for 3 days. 16 hours before acquirement, the cells were stimulated with thymidine of […], and then, 16 hours after stimulation, proliferation of the mouse cells was measured.

[4] = test system: animal models induced with obesity; experiment: Serum glucose, triglyceride and cholesterol by autoanalyzer; assay type: in vivo, mouse; settings: oral administration, obese mice, FIG. 3
Description: Further, an experimental animal group was etherized and blood was collected from the heart. The collected blood was put into a centrifuge tube and centrifuged at 3000 rpm for 20 minutes, so that the serum was separated and kept in a freezer until it was analyzed at −70° C. Contents of glucose, triglyceride, total cholesterol, HDL-cholesterol, and LDL-cholesterol in the serum were analyzed using an autoanalyzer (Kuadro, Italy).

[5] = test system: pre-adipocyte; experiment: Adipocyte differentiation of pre-adipocyte, Oil red O analysis; assay type: cell-based; settings: vs untreated cells, dependent on dose of rebamipide, FIG. 8
Description: In order to check whether or not rebamipide has a […] inhibition effect, the inventors of the present disclosure divided pre-adipocyte in an amount of 1.2×10^4/2 ml into a 24-well plate, and when the cells were completely packed, the cells were cultured again for 48 hours. After 48 hours, differentiation of adipocyte was induced with replacement of a culture medium added with dexamethasone, insulin, and isobutylmethylxanthine. In this case, rebamipide was also used to stimulate while being dissolved in DMSO. 3 days after differentiation, differentiation of adipocyte was maintained with replacement with a culture medium added with dexamethasone and insulin once per two days. After 4 days, Oil red O analysis was carried out.

[6] = test system: animal group induced with obesity; experiment: Brown fat to white fat ratio, interscapular region; assay type: in vivo, mouse; settings: 30 mg/kg and 100 mg/kg, vs animal group induced with obesity, FIG. 10
Description: Thus, in order to check an effect of treatment with rebamipide on white fat and brown fat in vivo, the inventors of the present disclosure separated fat from an interscapular region of an animal group induced with obesity and a group treated with rebamipide with a dose of 30 mg/kg and 100 mg/kg and divided into white fat and brown fat. A weight of each of the white fat and the brown fat was measured, and an amount of the brown fat with respect to the white fat was calculated.

[7] = test system: STAT3; experiment: STAT3 inhibition in spleen of obesity induced arthritis model, confocal microscope; assay type: in vivo, mouse; settings: FIG. 16
From the text: In order to investigate whether or not rebamipide can inhibit STAT3, the inventors of the present disclosure extracted the spleen from a mouse in each group, and embedded a frozen section (optimal cutting temperature compound: O.C.T. compound) using the extracted spleen and rapidly cooled the tissue in liquid nitrogen and attached the tissue on a slide to a thickness of 7 μm using a cryo microtome. Then, the section was fixed with acetone and coated with 10% normal goat serum and blocked from a non-specific reaction for 30 minutes. Thereafter, the section was reacted at 4° C. overnight with primary antibodies, that is, FITC-labeled anti-mFoxp3 Ab, FITC labeled anti-mCD4 Ab, PE-labeled anti-p-STAT3 s727 Ab, and PE-labeled anti-p-STAT3 y705 Ab, diluted with PBS (pH 7.5) at a ratio of 1:50 for analyzing STAT3. On the next day, the section was washed with a PBS solution, and a stained tissue was analyzed with a confocal microscope.

[8] = test system: animal model with collagen induced arthritis (CIA); experiment: Histological inspection of joints in collagen induced arthritis model; assay type: in vivo, mouse; settings: 300 mg/kg oral, after 61 days, H&E, Toluidine blue, safranin O, FIG. 12
Description: Each animal model with collagen induced arthritis (CIA) was orally administered with rebamipide with a dose of 300 mg/kg. After 61 days, euthanasia was administered to the experimental animals. Then, hind legs of the mouse were fixed with 10% formalin, and compounds of calcium were removed from the bone and paraffin was coated. A section of the joint (7 μm) was prepared and stained with hematoxylin and eosin. Further, in order to check damage of cartilage, a histological inspection was carried out by staining with Toluidine blue and safranin O.

[9] = test system: animal models induced with obesity; experiment: Obesity improvement depending on dose: weight and liver; assay type: in vivo, mouse
Description: In order to check an obesity improvement effect depending on a treatment concentration of rebamipide, the inventors of the present disclosure orally administered rebamipide with a dose of 30 mg/kg and 100 mg/kg to an animal models induced with obesity prepared in Example 1 and then measured weights of the rebamipide treatment group and a mouse induced with obesity as a control group. For in vitro test, on the 63rd day after treatment with rebamipide, an experimental animal was killed and the liver of the mouse was extracted, and then, a size of the mouse and a weight of the liver were measured with the naked eye.

[10] = test system: animal models induced with obesity; experiment: Weight reduction effect in mice induced with obesity using a high fat food; assay type: in vivo, C57BL/6(H-2kb) mouse; settings: 300 mg/kg oral
Description: The inventors of the present disclosure prepared animal models induced with obesity in order to check whether rebamipide has an effect of treating obesity. As a test animal, a C57BL/6(H-2kb) mouse was used. In order to prepare animal models induced with obesity, a high fat food was fed to the animal models induced with obesity. After rebamipide was orally administered with a dose of 300 mg/kg to the animal models induced with obesity, weights of a rebamipide-treated group and a control group induced with obesity were measured.

SMILES: O=C(NC(Cc1cc(=O)[nH]c2ccccc12)C(=O)O)c1ccc(Cl)cc1 (stereo not shown) [rebamipide, 2-(4-chlorobenzoylamino)-3-[2(1H)-quinolinon-4-yl]propionic acid]
- type-II-collagen-specific IgG2a in serum [1]: significantly decreased
- type-II-collagen-specific IgG in serum [1]: significantly decreased
- infiltration of IL-1b in joint [2]: inhibited
- infiltration of IL-6 in joint [2]: inhibited
- infiltration of IL-17 in joint [2]: inhibited
- infiltration of Nitrothyrosine in joint [2]: inhibited
- infiltration of TNF-a in joint [2]: inhibited
- effect on proliferation of spleen cells ([3]; 100 mg/kg oral, compared between doses): higher
- proliferation of spleen cells ([3]; spleen cells of orally treated mice, 0.5 μg/ml aCD3, 3 days): inhibition of cell proliferation was decreased
- HDL-cholesterol in serum [4]: slightly increased; also recorded: not statistically significant but increased
- LDL-cholesterol in serum [4]: statistically significantly reduced; also recorded: statistically significantly decreased
- glucose in serum [4]: statistically significantly reduced; also recorded: statistically significantly decreased
- total cholesterol in serum [4]: statistically significantly reduced; also recorded: statistically significantly decreased
- triglyceride in serum [4]: statistically significantly reduced; also recorded: statistically significantly decreased
- differentiation of adipocyte (Oil red O) [5]: differentiation of adipocyte did not occur
- ratio of the brown fat to the white fat [6]: increased
- p-STAT3 s705 in spleen [7]: decreased
- p-STAT3 s727 in spleen [7]: decreased
- damage of the joint and cartilage (histology) [8]: damage of the joint and cartilage was not severe and maintained similarly to a normal mouse
- weight ([9]; 30 mg/kg and 100 mg/kg oral, vs control group, FIG. 6A): statistically reduced
- weight reduction effect ([9]; 30 mg/kg oral, FIG. 6A): a weight reduction effect was illustrated
- liver appearance ([9]; 100 mg/kg oral, 63rd day, FIG. 6B): bright red similarly to a liver of a normal control mouse
- weight reduction effect ([9]; 100 mg/kg oral, FIG. 6A): highest
- liver appearance with the naked eye ([10]; killed on the 51st day, FIG. 1B): bright red like a liver of a normal mouse
- weight ([10]; obese mice on high fat food, vs control group, FIG. 1A): statistically significantly decreased
